The values below come from patent publication US4725592A, “1-Acyloxyalkyl esters of cephalosporin” (Takeda Chemical Industries, Ltd., priority 1983, dated 1988).

SMILES strings stand for the structures. Like-named read-outs stand apart in the source and are kept apart here.

On the set-up of series [1]: species or system mice. As to conditions: mouse, in vivo; for Bioavailability / Plasma level of non-ester (Compound [II]) 2 hr / AUC: 120 min; for Plasma level of non-ester (Compound [II]) 0.25 hr / Plasma level of non-ester (Compound [II]) 0.5 hr / Plasma level of non-ester (Compound [II]) 1.0 hr / Plasma level of non-ester (Compound [II]) 2 hr / AUC: po, 100 mg/kg; for Plasma level of non-ester (Compound [II]) 0.25 hr: 15 min; for Plasma level of non-ester (Compound [II]) 0.5 hr: 30 min; for Plasma level of non-ester (Compound [II]) 1.0 hr: 60 min. As to the method: The compounds of Examples (compound Nos. 1 and 2) and, as a control compound, the pivaloyloxymethyl ester of compound [II] (hereinafter referred to briefly as compound A) are administered orally to mice, each compound to one animal, in the dose of 100 mg/kg in terms of the non-ester, i.e. compound [II]. […] As a control, compound [II] is subcutaneously administered to a mouse and the AUC value is calculated as above.

The subject of another series is Staphylococcus aureus. Conditions: Antimicrobial Agent and Chemotherapy 14, 557-568 (1978); cited from earlier work.
A further series has as its system Proteus mirabilis. As to conditions: Antimicrobial Agent and Chemotherapy 14, 557-568 (1978); cited from earlier work.
The next series deals with Escherichia coli. Conditions: Antimicrobial Agent and Chemotherapy 14, 557-568 (1978); cited from earlier work.
For the next series, the system named is Klebsiella pneumoniae. Conditions: Antimicrobial Agent and Chemotherapy 14, 557-568 (1978); cited from earlier work.
A further series relates to Proteus vulgaris. Conditions: Antimicrobial Agent and Chemotherapy 14, 557-568 (1978); cited from earlier work.
For a further series, the system named is Proteus morganii. Conditions: Antimicrobial Agent and Chemotherapy 14, 557-568 (1978); cited from earlier work.

As for `CN(C)CCn1nnnc1SCC1=C(C(=O)OCOC(=O)C(C)(C)C)N2C(=O)[C@@H](NC(=O)Cc3csc(N)n3)[C@H]2SC1` [A, pivaloyloxymethyl ester of compound [II]], in series [1], the Bioavailability is reported as 41.8%, the “Plasma level of non-ester (Compound [II]) 0.25 hr” value is 21000 ng/mL, the “Plasma level of non-ester (Compound [II]) 0.5 hr” value stood at 16200 ng/mL and the “Plasma level of non-ester (Compound [II]) 1.0 hr” value was 6100 ng/mL. Also, the “Plasma level of non-ester (Compound [II]) 2 hr” value in series [1] came to 600 ng/mL.

As a reminder, the AUC is concentration integrated over time. A higher AUC goes with high exposure. Regarding `CC(C)CC(=O)OC(OC(=O)C1=C(CSc2nnnn2CCN(C)C)CS[C@@H]2[C@H](NC(=O)Cc3csc(N)n3)C(=O)N12)C(C)C.Cl.Cl` (stereo partly drawn) [Compound No. 1, 1-(3-Methylbutyryloxy)-2-methylpropyl 7β-[2-(2-aminothiazol-4-yl)acetamido]-3-[[[1-(2-dimethylaminoethyl)-1H-tetrazol-5-yl]thio]methyl]ceph-3-em-4-carboxylate dihydrochloride], in series [1], the Bioavailability stood at 91.0%, the “Plasma level of non-ester (Compound [II]) 0.25 hr” value is 55400 ng/mL, the “Plasma level of non-ester (Compound [II]) 0.5 hr” value worked out at 37000 ng/mL and the “Plasma level of non-ester (Compound [II]) 1.0 hr” value came out at 8460 ng/mL. Also, in series [1], the AUC turned out to be 35300 ng·h/mL and the “Plasma level of non-ester (Compound [II]) 2 hr” value came out at 2500 ng/mL.

In the case of `CCCC(OC(=O)CC(C)C)OC(=O)C1=C(CSc2nnnn2CCN(C)C)CS[C@@H]2[C@H](NC(=O)Cc3csc(N)n3)C(=O)N12.Cl.Cl` (stereo partly drawn) [Compound No. 2, 1-(3-Methylbutyryloxy)butyl 7β-[2-(2-aminothiazol-4-yl)acetamido]-3-[[[1-(2-dimethylaminoethyl) -1H-tetrazol-5-yl]thio]methyl]ceph-3-em-4-carboxylate dihydrochloride], in series [1], the Bioavailability is listed as 81.4%, the “Plasma level of non-ester (Compound [II]) 0.25 hr” value worked out at 74300 ng/mL, the “Plasma level of non-ester (Compound [II]) 0.5 hr” value turned out to be 21600 ng/mL and the “Plasma level of non-ester (Compound [II]) 1.0 hr” value worked out at 5360 ng/mL. Further, in series [1], the AUC came to 31600 ng·h/mL and the “Plasma level of non-ester (Compound [II]) 2 hr” value is 1800 ng/mL.

On to `CN(C)CCn1nnnc1SCC1=C(C(=O)O)N2C(=O)[C@@H](NC(=O)Cc3csc(N)n3)[C@H]2SC1` [Compound [II], 7β-[2-(2-aminothiazol-4-yl)acetamido]-3-[[[1-(2-dimethylaminoethyl)-1H-tetrazol-5-yl]thio]methyl]ceph-3-em-4-carboxylic acid], for which the antibacterial activity entry in the series on Staphylococcus aureus, in the series on Proteus mirabilis, in the series on Escherichia coli, with Klebsiella pneumoniae, in the series with Proteus vulgaris and in the series on Proteus morganii was “potent antibacterial activity” throughout. The same compound came in with a Bioavailability in series [1] (sc) of 100%.
